Test results reported in ChEMBL document CHEMBL3352411, “Structure-activity relationships (SAR) and structure-kinetic relationships (SKR) of bicyclic heteroaromatic acetic acids as potent CRTh2 antagonists II: lead optimization” (Bioorg Med Chem Lett, 2014).

Columns and labels:
[1] = target: T1, Prostaglandin D2 receptor 2 (Homo sapiens, UniProt Q9Y5Y4); test: Antagonist activity at CRTh2 receptor (unknown origin) overexpressed in CHOK1 cell membranes assessed as inhibition of [35S]-GTPgammaS binding measured after 2 hrs by liquid scintillation counting analysis; assay type: functional, CHO-K1
T1 sequence (Q9Y5Y4 whole entry): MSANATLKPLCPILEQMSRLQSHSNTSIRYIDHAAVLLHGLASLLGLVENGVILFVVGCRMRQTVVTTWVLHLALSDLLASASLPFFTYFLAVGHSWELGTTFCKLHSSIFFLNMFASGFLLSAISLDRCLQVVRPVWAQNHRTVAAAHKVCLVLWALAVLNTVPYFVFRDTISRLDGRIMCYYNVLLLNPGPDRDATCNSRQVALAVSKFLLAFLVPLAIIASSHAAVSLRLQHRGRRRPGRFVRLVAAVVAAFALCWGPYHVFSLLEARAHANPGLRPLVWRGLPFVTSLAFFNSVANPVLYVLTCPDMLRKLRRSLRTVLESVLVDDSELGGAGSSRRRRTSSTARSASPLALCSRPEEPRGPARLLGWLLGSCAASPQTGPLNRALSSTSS

[2] = target: T2, Prostaglandin D2 receptor 2 (Homo sapiens) (UniProt Q9Y5Y4); test: Binding affinity to CRTh2 receptor (unknown origin) overexpressed in CHOK1 cell membranes assessed as dissociation half life at 10 times IC50 concentration preincubated for 1 hr with 0.1 nM to 100 uM PGD2 and [35S]-GTPgammaS by liquid scintillation counting analysis; assay type: functional; conditions: CHO-K1
T2 sequence (whole entry): T1 sequence (Q9Y5Y4 whole entry)

[3] = Cmax in Wistar rat at 1 mg/kg, iv; assay type: ADME, organism-based; parameters: dose 1 mg/kg, route intravenous; conditions: in vivo
[4] = Mean residence time in Wistar rat at 1 mg/kg, iv; assay type: ADME, organism-based; parameters: dose 1 mg/kg, route intravenous; conditions: in vivo
[5] = Clearance in Wistar rat at 1 mg/kg, iv; assay type: ADME, organism-based; parameters: dose 1 mg/kg, route intravenous; conditions: in vivo
[6] = Terminal half life in Wistar rat at 1 mg/kg, iv; assay type: ADME, organism-based; parameters: dose 1 mg/kg, route intravenous; conditions: in vivo, read-out: beta t1/2 (converted)
[7] = Volume of distribution at steady state in Wistar rat at 1 mg/kg, iv; assay type: ADME, organism-based; parameters: dose 1 mg/kg, route intravenous; conditions: in vivo, read-out: Vdss
[8] = AUC (0 to infinity) in Wistar rat at 1 mg/kg, iv; assay type: ADME, organism-based; parameters: time infinity, dose 1 mg/kg, route intravenous; conditions: plasma
[9] = Oral bioavailability in Wistar rat at 10 mg/kg; assay type: ADME, organism-based; conditions: in vivo

| SMILES | IC50 [1] | T1/2 [2] | also measured |
| --- | --- | --- | --- |
| CCN(Cc1cc(C(F)(F)F)ccc1-n1cc(CC(=O)O)c2ccc(OC)nc21)C(=O)C1CC1 | 135 nM | – | – |
| CCN(Cc1cc(C(F)(F)F)ccc1-n1cc(CC(=O)O)c2ccc(C3CC3)nc21)C(=O)C1CC1 | 49 nM | 5.4 h | – |
| CCN(Cc1ccccc1-n1cc(CC(=O)O)c2ccc(C(F)(F)F)cc21)C(=O)C1CC1 | 11 nM | 27 h | Cmax [3]: 1900 ng/mL; MRT [4]: 3.4 h; clearance [5]: 16 mL/min/kg; half-life [6]: 6.6 h; Vd [7]: 3.2 L/kg; AUC(0-inf) [8]: 1070 ng·h/mL |
| CCN(Cc1cc(C(F)(F)F)ccc1-n1cc(CC(=O)O)c2ccc(C)nc21)C(=O)COC | 9 nM | 21 h | – |
| CCN(Cc1cc(C(F)(F)F)ccc1-n1cc(CC(=O)O)c2ccc(C)nc21)C(=O)C1CC1 | 10 nM | 21 h | Cmax [3]: 1610 ng/mL; MRT [4]: 2.3 h; clearance [5]: 14 mL/min/kg; bioavailability [9]: 27%; half-life [6]: 4.9 h; Vd [7]: 1.8 L/kg; AUC(0-inf) [8]: 1220 ng·h/mL |
| CCN(Cc1cc(F)ccc1-n1cc(CC(=O)O)c2cccnc21)C(=O)C1CC1 | – | 1.3 h | – |
| CCN(Cc1cc(C(F)(F)F)ccc1-n1cc(CC(=O)O)c2ccc(C)nc21)C(=O)CN(C)C | 163 nM | – | – |
| CCN(Cc1cc(S(C)(=O)=O)ccc1-n1cc(CC(=O)O)c2ccc(C)nc21)C(=O)C1CC1 | 40 nM | – | – |
| CCN(Cc1cc(C)ccc1-n1cc(CC(=O)O)c2ccc(C)nc21)C(=O)C1CC1 | 5.9 nM | 24 h | – |
| CCN(Cc1cc(C(F)(F)F)ccc1-n1cc(CC(=O)O)c2ccc(C)nc21)C(C)=O | – | 6.4 h | – |
| CCc1ccc2c(CC(=O)O)cn(-c3ccc(C(F)(F)F)cc3CN(CC)C(=O)C3CC3)c2n1 | 10 nM | 9.9 h | – |
| CCN(Cc1cc(C(F)(F)F)ccc1-c1nn(CC(=O)O)c2ccc(C)cc12)C(=O)C1CC1 | 9 nM | 1.8 h | – |
| Cc1ccc2c(CC(=O)O)cn(-c3ccc(C(F)(F)F)cc3CN(CC3CC3)C(=O)C3CC3)c2n1 | 11 nM | 32 h | – |
| CCN(Cc1cc(C(F)(F)F)ccc1-n1cc(CC(=O)O)c2ccc(C(F)(F)F)nc21)C(=O)C1CC1 | 54 nM | – | – |
| CCN(Cc1cc(C(F)(F)F)ccc1-c1nn(CC(=O)O)c2cccc(C)c12)C(=O)C1CC1 | – | 2.3 h | – |
| Cc1ccc2c(CC(=O)O)cn(-c3ccc(C(F)(F)F)cc3CN(C(=O)C3CC3)C(C)C)c2n1 | 28 nM | 9.2 h | – |
| Cc1ccc2c(CC(=O)O)cn(-c3ccc(C(F)(F)F)cc3CN(CCO)C(=O)C3CC3)c2n1 | 14 nM | 7.8 h | – |
| CCN(Cc1cc(C(F)(F)F)ccc1-c1nn(CC(=O)O)c2cccc(C#N)c12)C(=O)C1CC1 | 33 nM | 1.2 h | – |
| CCN(Cc1cc(C(F)(F)F)ccc1-n1cc(CC(=O)O)c2ccc(C)nc21)C(=O)c1ccccn1 | 97 nM | – | – |
| CCN(Cc1cc(C(F)(F)F)ccc1-c1nn(CC(=O)O)c2cccc(OC)c12)C(=O)C1CC1 | 23 nM | 2.4 h | – |
| CCN(Cc1cc(C(F)(F)F)ccc1-n1cc(CC(=O)O)c2ccccc21)C(=O)C1CC1 | – | 2.5 h | – |
| CCN(Cc1cc(F)ccc1-c1cn(CC(=O)O)c2ccccc12)C(=O)C1CC1 | – | 2 h | Cmax [3]: 431 ng/mL; MRT [4]: 1.2 h; clearance [5]: 76 mL/min/kg; half-life [6]: 1.9 h; Vd [7]: 5.4 L/kg; AUC(0-inf) [8]: 222 ng·h/mL |
| COCCN(Cc1cc(C(F)(F)F)ccc1-n1cc(CC(=O)O)c2ccc(C)nc21)C(=O)C1CC1 | 4 nM | 7 h | – |
| CCN(Cc1cc(C(F)(F)F)ccc1-c1nn(CC(=O)O)c2ccc(F)c(Cl)c12)C(=O)C1CC1 | – | 3.3 h | – |
| CCN(Cc1cc(OC(F)(F)F)ccc1-n1cc(CC(=O)O)c2ccc(C)nc21)C(=O)C1CC1 | 5.8 nM | 16 h | – |
| CCN(Cc1cc(C(F)(F)F)ccc1-c1nn(CC(=O)O)c2ccc(Cl)cc12)C(=O)C1CC1 | – | 2.8 h | – |
| CCN(Cc1cc(C(F)(F)F)ccc1-c1cc(CC(=O)O)c2ccc(C)nn12)C(=O)C1CC1 | 4.2 nM | 26 h | – |

More lines, main results first:

| IC50 [1] | T1/2 [2] | SMILES | also measured |
| --- | --- | --- | --- |
| 20 nM | 1.9 h | CCN(Cc1cc(C(F)(F)F)ccc1-c1cn(CC(=O)O)c2cccnc12)C(=O)C1CC1 | – |
| 6 nM | 24 h | CCN(Cc1cc(C(F)(F)F)ccc1-n1cc(CC(=O)O)c2ccc(C)nc21)C(=O)Cc1ccccc1 | – |
| – | 2.3 h | CCN(Cc1cc(C(F)(F)F)ccc1-n1cc(CC(=O)O)c2cccnc21)C(=O)C1CC1 | – |
| 4.7 nM | 11 h | CCN(Cc1cc(F)ccc1-n1cc(CC(=O)O)c2ccc(C)nc21)C(=O)C1CC1 | – |
| 6.3 nM | 3.2 h | CCN(Cc1cc(C(F)(F)F)ccc1-c1nn(CC(=O)O)c2cccc(Cl)c12)C(=O)C1CC1 | – |
| – | 2 h | CCN(Cc1cc(C(F)(F)F)ccc1-c1cc(CC(=O)O)n2cccnc12)C(=O)C1CC1 | Cmax [3]: 910 ng/mL; MRT [4]: 2.6 h; clearance [5]: 26 mL/min/kg; half-life [6]: 4.6 h; Vd [7]: 4.2 L/kg; AUC(0-inf) [8]: 639 ng·h/mL |
| – | 8.8 h | CCN(Cc1ccccc1-n1cc(CC(=O)O)c2ccc(C)nc21)C(=O)C1CC1 | – |
| 15 nM | 25 h | CCN(Cc1cc(C(F)(F)F)ccc1-c1cn(CC(=O)O)c2ccc(C(F)(F)F)nc12)C(=O)C1CC1 | – |
| 14 nM | 20 h | CCN(Cc1cc(F)ccc1-c1cn(CC(=O)O)c2ccc(C(F)(F)F)cc12)C(=O)C1CC1 | – |
| 17 nM | 21 h | CCN(Cc1cc(C(F)(F)F)ccc1-c1cn(CC(=O)O)c2ccc(C)nc12)C(=O)C1CC1 | Cmax [3]: 366 ng/mL; MRT [4]: 0.3 h; clearance [5]: 134 mL/min/kg; half-life [6]: 0.5 h; Vd [7]: 2.7 L/kg; AUC(0-inf) [8]: 126 ng·h/mL |
| 5 nM | 26 h | CCN(Cc1cc(C(F)(F)F)ccc1-n1cc(CC(=O)O)c2ccc(C)nc21)C(=O)NCc1ccccc1 | – |
| 15 nM | 10.5 h | CCN(Cc1cc(C(F)(F)F)ccc1-c1nn(CC(=O)O)c2ccc(Cl)c(F)c12)C(=O)C1CC1 | – |
| – | 19 h | CCN(Cc1cc(C(F)(F)F)ccc1-c1cc(CC(=O)O)n2ccc(C)nc12)C(=O)C1CC1 | – |
| 10 nM | 24 h | CCN(Cc1cc(C(F)(F)F)ccc1-n1cc(CC(=O)O)c2ccc(C)nc21)C(=O)C1CCC1 | – |
| 127 nM | – | CCN(Cc1cc(C(F)(F)F)ccc1-c1nn(CC(=O)O)c2cc(F)ccc12)C(=O)C1CC1 | – |
| 4.3 nM | 5 h | CCN(Cc1cc(C(F)(F)F)ccc1-c1nn(CC(=O)O)c2cccc(F)c12)C(=O)C1CC1 | – |
| 7 nM | 22 h | CCN(Cc1cc(C(F)(F)F)ccc1-n1cc(CC(=O)O)c2ccc(C)nc21)C(=O)CC1CC1 | – |
| 11 nM | 29 h | CCN(Cc1cc(C(F)(F)F)ccc1-n1cc(CC(=O)O)c2ccc(C(F)F)nc21)C(=O)C1CC1 | – |
| 4 nM | 40 h | Cc1ccc2c(CC(=O)O)cn(-c3ccc(C(F)(F)F)cc3CN(CCOc3ccccc3)C(=O)C3CC3)c2n1 | – |
| – | 1.4 h | CCN(Cc1cc(C(F)(F)F)ccc1-c1nn(CC(=O)O)c2ccc(F)cc12)C(=O)C1CC1 | – |
| 119 nM | – | CCN(Cc1cc(C(F)(F)F)ccc1-n1cc(CC(=O)O)c2ccc(C)cc21)C(=O)C1CC1 | – |
| 5.2 nM | 31 h | CCN(Cc1cc(Cl)ccc1-n1cc(CC(=O)O)c2ccc(C)nc21)C(=O)C1CC1 | – |
| 19 nM | – | CCN(Cc1cc(C(F)(F)F)ccc1-c1nn(CC(=O)O)c2ccccc12)C(=O)C1CC1 | – |
